From US20260324636A1, “COMPOSITION FOR PROVIDING PLANT WITH STRESS RESISTANCE” (KIRIN HOLDINGS KABUSHIKI KAISHA, priority 2022, published 2026) come the findings set out here.

In one assay the test system is ZAT12. Kind of assay: Histone H4 acetylation level of ZAT12 by chromatin immunoprecipitation and quantitative PCR, Example 14. In kind it is in vivo, Arabidopsis thaliana (Col-0). The note with it: Arabidopsis thaliana; 0.4 mM in medium, 2 hours after application; read-out: histone H4 acetylation level of ZAT12, increase vs group not subjected to the treatment. As for the experimental part:
A wild-type Arabidopsis thaliana strain (accession: Col-0) was used as an experimental material. Seeds were purchased from Inplanta Innovations Inc.
A liquid medium containing a ½ Murashige and Skoog Plant Salt Mixture (Nacalai) and 1 (w/v) % sucrose (FUJIFILM Wako) was used as a growth medium.
Arabidopsis thaliana seeds were sterilized with the use of a Kitchen Haiter® liquid (Kao Corporation) diluted to one-half concentration with distilled water for 3 minutes, washed 3 times with sterile distilled water, and then incubated at 4° C. overnight. The growth medium (100 ml) was prepared in a 300-ml flask, the incubated seeds were seeded therein, the flask was transferred to an incubator (TOMY), and shake culture was then initiated. The incubator was maintained at a temperature of 22° C. for a daily cycle of 16 hours light and 8 hours darkness, and the rotation speed of the shaker was set at 180 rpm.
A stock solution of N-acetylglutamic acid (Tokyo Chemical Industry Co., Ltd.) was added to Arabidopsis thaliana 7 days after seeding to the final concentration of 0 mM and 0.4 mM in the media, followed by incubation for 2 hours. Sample fixation following incubation was performed in accordance with Yamaguchi et al (Arabidopsis Book, Feb. 17, 2014; 12: e0170). […]

A further assay relates to H1HSFA2. Put plainly: H1HSFA2 gene expression by real-time PCR, Example 7. In kind it is in vivo, hop. The note with it: 1 mM in medium, 20° C. for 2 hours, leaves; read-out: H1HSFA2 expression level, increase vs control. From the text:
In order to design primers for the target genes necessary for gene expression analysis by real-time PCR, homologs of Arabidopsis thaliana high-temperature-responsive genes in hop were searched for. The amino acid sequences of Arabidopsis thaliana HSFA2 (AGI code: AT2G26150) and HSP17.6C (AGI code: AT1G53540) were obtained from TAIR (https://www.arabidopsis.org/), and the nucleotide sequences of the gene homologs were obtained using Hopbase (https://hopbase.cgrb.oregonstate.edu/). […] As the reference gene, the nucleotide sequence of the homolog of Arabidopsis thaliana EF1α (AGI code: AT1G18070) was obtained. The hop homolog genes were designated as H1HSFA2, H1HSP17.6C, and HIEF1α, respectively.
The materials as used in Example 4 were used.
The methods as employed in Example 4 were employed.
The leaves in the first and the second nodes from the apical buds of the tissue-cultured seedlings were sampled 1.5 months after the initiation of subculture and inoculated into a liquid medium consisting of a ½ Murashige and Skoog Plant Salt Mixture and 2 (w/v) % glucose. Specifically, a liquid medium was dispensed at 5 ml/well to a 6-well microplate (IWAKI), and 5 hop leaves were mounted thereon. […]
Thereafter, the relative expression level of the target gene upon N-acetylglutamic acid treatment was calculated by the ΔΔCt method.

On to `CC(=O)N[C@@H](CCC(=O)O)C(=O)O` [N-acetylglutamic acid], for which the fold induction at 400 µM in the assay with ZAT12 was found to be 2.3. The fold induction at 1000 µM in the assay on H1HSFA2 was 1.7.
